According to patent US8476255B2, “Histone deacetylase inhibitors” (Orchid Chemicals & Pharmaceuticals Limited, priority 2007, dated 2013):

What was measured:
Assay type in all cases: cell-based
[1] = tested on: NCIH460 (lung) cells; test: Anti-cancer screen (MTT), NCIH460; conditions: Homo sapiens, NCI-H460, NCIH460, 48 hours, MTT
Procedure, shortened: (§1)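 Cells in DMEM with 10% FBS were seeded for 24 h, then exposed for 48 h to compounds at 0.01, 0.1, 1, 10 and 100 μM final, in triplicate. Viability was read by MTT (3 h, A570 after DMSO solubilisation), referenced to a pre-dosing T0 plate, with SAHA as standard.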

[2] = tested on: U251 (glioma) cells; test: Anti-cancer screen (MTT), U251; conditions: Homo sapiens, U-251, U251, 48 hours, MTT
Procedure, shortened: as §1

[3] = tested on: NCIH460, HCT116 and U251 cells; test: Anti-cancer screen, mean GI50 over cell lines; conditions: mean over cell lines; read-out: Cell growth inhibition Mean GI50
Procedure, shortened: as §1

[4] = tested on: p21; test: p21 induction, sandwich ELISA in HCT116 lysate; conditions: HCT116, 18 hours
Method: Acetylated histone (H3), acetylated Tubulin and p21 levels were detected in cell lysate by sandwich ELISA method (Cell Signaling Technology, USA, Cat No: 7232, 7204 & 7167 respectively) by following manufacturer's instructions. Briefly, colon cancer cells (HCT116. 10,000/well) were incubated with test compound (1 and 10 μM) or medium (control) for 4 hours at 37° C. in CO2 incubator. The incubation lasted 18 hours for p21 induction. After incubation, cell lysates were prepared in cell lysis buffer by sonication on ice. The lysates were collected after centrifugation and subjected to ELISA test procedure. 100 μL of each diluted cell lysate in dilution buffer (1:1) was added to appropriate capture antibody coated microwells and incubated overnight at 4° C. After washing, 100 μL of detection antibody was added for 1 hour at 37° C. After second washing, 100 μL of HRP-linked secondary antibody was added for 30 min at 37° C. Finally, after appropriate washing, 100 μL of TMB substrate was added for 10 min at 37° C. followed by 100 μL of stop solution. The absorbance of individual wells was read using a spectrophotometer at 450 nm (A450).

Question: Which results are given for `COc1ccc(/C=C(/C(=O)NCc2ccc(C(=O)Nc3ccccc3N)cc2)c2ccc(F)cc2)cc1OC` [Compound 19, N-(2-Aminophenyl)-4-((3-(3,4-dimethoxyphenyl)-2-(4-fluorophenyl)acrylamido)methyl)benzamide]?
Answer: GI50 ([1]; read-out: Cell growth inhibition NCIH460 (Lung) GI50): 2500 nM; LC50 ([1]; read-out: Cell growth inhibition NCIH460 (Lung) LC50): 70000 nM; IC (TGI) ([1]; read-out: Cell growth inhibition NCIH460 (Lung) TGI): 8000 nM; GI50 ([2]; read-out: Cell growth inhibition U251 (Glioma) GI50): 300 nM; LC50 (concentration giving 50% net cell kill relative to the time-zero cell count) ([2]; read-out: Cell growth inhibition U251 (Glioma) LC50): 4800 nM; IC (TGI) ([2]; read-out: Cell growth inhibition U251 (Glioma) TGI): 1800 nM; GI50 [3]: 1000 nM; P21 induction (Fold increase) ([4]; 1 μM): 1.6 Fold increase; P21 induction (Fold increase) ([4]; 10 μM): 2.4 Fold increase
